Reference: patent EP3301100A1, “ORGANOMETALLIC FLUCONAZOLE DERIVATES AND THEIR USE AS ANTIMYCOTICS” (Universität Zürich, priority 2016, dated 2018)
In brackets after ≈: the same amount, converted by molar mass.

How the values were obtained:
[1] = test system: human retinal pigment epithelial cell (RPE-1-hTert); assay: cells
Description: In both topic and systemic applications, antimycotic drugs are getting in contact with patient tissues. It is therefore of utmost importance that new drug candidates display a lack of host toxicity. Thus, the antiproliferative effect of the new complexes were investigated in vitro on human retinal pigment epithelial cell (RPE-1-hTert). […] Table 1: Host cytotoxicity
Human fibroblast (MRC-5) and retinal pigment epithelial (RPE) cell lines were cultured in F-10 medium supplemented with 10% fetal calf serum (FCS, Gibco), 100 U/mL penicillin, 100 µg/mL streptomycin or DMEM medium (Gibco) supplemented with 10% fetal calf serum (FCS, Gibco), 100 U/mL penicillin, 100 µg/mL streptomycin, respectively, at 37 °C and 6% CO2.
Cytotoxicity studies of the compounds of the present invention were performed by a fluorometric cell viability assay using resazurin (Promocell GmbH). Briefly, one day before treatment the cells were plated in triplicate in 96-well plates at a density of 4 × 10^3 cells per well in 100 µL. Upon treating the cells with increasing concentrations of the compounds of the present invention, the cells were incubated for 48 h at 37 °C/6% CO2, the medium was removed, and 100 µL of complete medium containing resazurin (0.2 mg mL^-1 final concentration) was added. After 4 h of incubation at 37 °C/6% CO2, the fluorescence of the highly red fluorescent resorufin product was quantified at 590 nm emission with 540 nm excitation wavelength using a SpectraMax M5 Microplate Reader. The results were expressed as mean ± standard deviation error of independent experiments.

Candida albicans = assay: Antifungal activity on pathological isolated strain (EUCAST susceptibility testing, MIC50); format: cell-based; settings: C. albicans, ≥ 50% inhibition of growth after 48 h incubation
Description: (§1) In vivo studies were performed on pathological isolated strains. […] The compounds of the present invention were tested against Candida albicans, its azole-resistant type and three different pathologic fungi, namely Penicillumpaneum, Aspergillus glaucus and Trichosporonasahi (see table 2). […] Table 2: In vivo antifungal activity
(§2) Candida strains were tested for their susceptibility to the azole (7 dilution series, ranging from 1 mM to 0.01 mM) following the European Committee for Antimicrobial Susceptibility Testing protocol (EUCAST Definitive Document EDef 7.2 Revision, 2012). Briefly, cells were grown in RPMI1640 medium supplied with 2.0% glucose, counted and inoculated at a concentration of 1-5 x 10^5 CFU/ml.

[2] = test system: C. albicans (res. Strains); assay: as above; format: cell-based, Candida albicans; settings: for MIC50: C. albicans (res. Strains), azole-resistant, ≥ 50% inhibition of growth after 48 h incubation
Description: as §1, §2

T. asahi = assay: as above; format: cell-based, Trichosporonasahi; settings: ≥ 50% inhibition of growth after 48 h incubation
Description: as §1, §2

A. glaucus = assay: as above; format: cell-based, Aspergillus glaucus; settings: ≥ 50% inhibition of growth after 48 h incubation
Description: as §1, §2

P. paneum = assay: as above; format: cell-based, Penicillumpaneum; settings: for MIC50: P. paneum, ≥ 50% inhibition of growth after 48 h incubation
Description: as §1, §2

Candida Robusta = settings: wild type C. robusta, agar, 24 h at 30 °C; result in words, comparison with the parent drug
Description: To evaluate the antifungal acitivty of the new drug candidates, a well-plate based assay was used. The first investigation of antimycotic activity has been performed on a well-known model, namely Candida Robusta. Wild type colony of C. robusta was cultured and diluted to start the growing phase just before treatment and then seeded at different concentrations on the agar terrain poured with different concentrations of the target complexes and incubated for 24 h at 30 °C.
Wild type C. robusta was freshly inoculated and cultured in autoclaved YPD buffer containing 2% bacto peptone, 1% bacto yeast extract and 2% glucose anhydrous at 30°C (Kuehner shaker Labtherm, Kuehner Switzerland).
Briefly, one day before treatment, an aliquot of wild type C. robustawas inoculated in 5 mL YPD buffer solution (see above) and incubated overnight at 30°C. The fungal proliferation was then quantified at 600 nm in a Cary60 UV/Vis (Agilent Technologies). The SC was then seeded at different concentrations of the yeast (representing OD of 0.2, 0.02, 0.002 and 0.0002 for different colony growth rate) in 24-wells plates containing 2 mL growing terrain. […] The fungal colony formation was monitored with Alpha Digitec camera (Bucher Biotec) and the colony density was calculated with Alphalmager software (v1.3.0.7) with multiplex band analysis mode / single tool. […]

Row | SMILES | cell viability [1] | IC50 ([1]; Homo sapiens, Epithelial cell, 48 h) | MIC50 (Candida albicans; Candida albicans) | MIC50 ([2]; Candida albicans) | MIC50 (T. asahi) | MIC50 (A. glaucus; Aspergillus glaucus) | MIC50 (P. paneum) | IC50 ([1]; RPE-1-hTert cells, 48 h incubation, resazurin, mean ± standard deviation error) | MIC50 (Candida albicans) | antifungal activity (Candida Robusta) | MIC50 [2] | azole resistance ([2]; C. albicans resistant strain, result in words) | MIC50 (A. glaucus) | antimycotic potency over the parent drug (P. paneum; e.g. P.paneum, factor versus fluconazole)
1 | OC(Cn1cncn1)(Cn1cncn1)c1ccc(F)cc1F [Fluconazole] | did not affect cell viability | > 100 µM | 0.8 µM (≈ 0.245 µg/mL) | > 209 µM | 1.6 µM (≈ 0.49 µg/mL) | 0.8 µM (≈ 0.245 µg/mL) | >209 µM |  |  |  |  |  |  | 
2 | Cl.OC(CNC[c-]1cccc1)(Cn1cncn1)c1ccc(F)cc1F.[Fe+2].c1cc[cH-]c1 (stereo not drawn) [H, syn/anti-N-(ferrocenylmethyl)-2-(2,4-difluorophenyl)-2-hydroxy-3-(1H-1,2,4-triazol-1-yl)propan-1-aminium chloride] |  |  |  |  |  |  |  | > 100 µM |  |  |  |  |  | 
3 | C[NH+](C[c-]1cccc1)CC(O)(Cn1cncn1)c1ccc(F)cc1F.[Cl-].[Fe+2].c1cc[cH-]c1 (stereo not drawn) [Methyl, syn/anti-N-(ferrocenylmethyl)-2-(2,4-difluorophenyl)-2-hydroxy-N-methyl-3-(1H-1,2,4-triazol-1-yl)propan-1-aminium chloride] |  |  |  |  | 0.13 µM |  | 0.25 µM |  | 0.07 µM | highest antimycotic activity | 0.7 µM | able to overcome azole resistance | >1 µM | ≤ 800 fold
